Test results as given in ChEMBL document CHEMBL1201862, “PubChem BioAssay data set” (2004).
Values joined by “and” are separate entries in the source; they are usually repeats but may differ in a detail not shown here. Identical values can stand only once. Active and inactive are the calls of the source.

Tests used:
[1] = target: Cytochrome P450 2C9 (Homo sapiens, UniProt P11712); details: Potency
[2] = THP-1 cell cytotoxicity, dose response, cytotoxicity control for non-replicating M. tuberculosis project (AID 489025); type: functional
[3] = system: Streptococcus; experiment: GAS UMAA2166 growth inhibition – luminescence, BacTiterGlo, counter-screen for streptokinase expression inhibitor project, dose response (AID 1915); type: functional, organism-based;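 also: potency for reduction of bacterial viability or growth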
[4] = NIH3T3 cell viability loss – ATP luminescence, mouse fibroblasts, counter-screen, dose response (AID 2010); type: functional, cell-based;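 also: cells exposed to compound for about 90 hours before reading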
[5] = Trypanosoma cruzi growth suppression in host cells – NIH3T3 host cells, beta-gal luminescence, confirmation (AID 2044); type: functional, cell-based;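 also: intracellular parasites grown in NIH/3T3 mouse fibroblasts as host cells; luminescent beta-galactosidase reporter signal from transgenic T. cruzi replicating inside host cells; inhibitors lower the luminescence signal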
[6] = Luminescence-based dose response cell-based high throughput screening assay for cytotoxic compounds using the IEC-6 intestinal epithelial cell line. [Related pubchem assays: 1858 (Summary AID.), 1825 (Counterscreen.), 1907 (Confirmation screen.)]; type: functional
[7] = system: Streptococcus sp. 'group A'; experiment: Streptococcus pyogenes SK(-)GAS viability under kanamycin – luminescence, BacTiterGlo, confirmation, counter-screen for streptokinase expression inhibitor project, dose response (AID 1900); type: functional, organism-based
[8] = HepG2 cell cytotoxicity, dose response, cytotoxicity control for non-replicating M. tuberculosis project (AID 489018); type: functional; details: Mycobacterium tuberculosis
[9] = cells; type: functional
[10] = Vero E6 cell cytotoxicity, dose response, cytotoxicity control for non-replicating M. tuberculosis project, secondary assay (AID 492998); type: functional, VeroE6; details: Vero C1008
[11] = system: INS1; experiment: INS-1E survival protection against cytokine death – cell-based, luminescence, retest, dose response (AID 449756); type: functional; details: Rattus norvegicus;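 also: cell death triggered by IL-1 beta plus TNF-alpha plus IFN-gamma mixture; protective hits raise ATP signal compared with cytokine alone wells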
[12] = cells
[13] = target: T1, Interleukin-8 (Homo sapiens, UniProt P10145); experiment: SAR analysis of GM-Tri-DAP induced IL-8 secretion in MCF-7/NOD1 cells - Set 2. [Related pubchem assays (depositor defined):AID1575, AID1578, AID2333]; type: functional, cell-based
T1 sequence (P10145 whole entry): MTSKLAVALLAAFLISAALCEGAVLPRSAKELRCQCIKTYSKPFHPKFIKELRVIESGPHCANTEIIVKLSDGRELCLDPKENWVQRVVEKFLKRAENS

[14] = target: T1, Interleukin-8; experiment: SAR analysis of Tumor necrosis factor alpha (TNF-alpha) induced IL-8 secretion in MCF-7/NOD1 cells - Set 2. [Related pubchem assays (depositor defined):AID1575, AID2250, AID2260]; type: functional, cell-based
[15] = target: Tumor necrosis factor (Homo sapiens, UniProt P01375); experiment: analog potency on TNFa NF-kB signaling – cell-based, revised, SAR follow-up (AID 2337); type: functional
[16] = target: Eukaryotic translation initiation factor 4E (Mus musculus, UniProt P63073); experiment: blockers of eIF4G binding by eIF4E – biochemical, TR-FRET, dose response (AID 855); type: functional;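 also: potency for disrupting eIF4E binding to eIF4GI seen as loss of FRET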
[17] = target: T2, DNA dC->dU-editing enzyme APOBEC-3G (Homo sapiens, UniProt Q9HC16); experiment: Dose Response confirmation of small molecule APOBEC3G DNA Deaminase Inhibitors via a fluorescence-based single-stranded DNA deaminase assay. [Related pubchem assays (depositor defined):AID493012, AID493028]; type: functional
[18] = target: T3, Voltage-gated N-type calcium channel alpha-1B subunit/Amyloid beta A4 precursor protein-binding family A member 1 (Homo sapiens, UniProt Q00975+Q02410); type: protein assay
[19] = target: Vasopressin V1a receptor (Homo sapiens, UniProt P37288); experiment: Counterscreen for Oxytocin Receptor (OXTR) agonists: Fluorescence-based cell-based high throughput dose response assay to identify agonists of the vasopressin 1 receptor (V1R). [Related pubchem assays: 2435 (Primary screen (OXTR agonists in singlicate)), 434991 (Counterscreen (V1R agonists in triplicate)), 2482 (Summary (OXTR agonists)) …; type: functional
[20] = target: Oxytocin receptor (Homo sapiens, UniProt P30559); experiment: Fluorescence-based cell-based high throughput dose response assay for agonists of the Oxytocin Receptor (OXTR). [Related pubchem assays: 2435 (Primary screen (OXTR agonists in singlicate)), 434991 (Counterscreen (V1R agonists in triplicate)), 2482 (Summary (OXTR agonists)), 434963 (Confirmation screen (OXTR agonists in triplicate))]; type: functional
[21] = target: T4, DNA dC->dU-editing enzyme APOBEC-3A (Homo sapiens, UniProt P31941); experiment: A3A deaminase inhibition for selectivity – biochemical, dose response (AID 504722); type: functional
[22] = target: T3, Voltage-gated N-type calcium channel alpha-1B subunit/Amyloid beta A4 precursor protein-binding family A member 1; type: protein assay; remark: listed apart in the source
[23] = viability of PTEN-deleted HCT116 cells – cell-based, HCT116 PTEN knockout, dose response (AID 1047); type: functional;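 also: HCT116 colon tumor cells with PTEN knocked out; cells exposed to compound for 60 hours before readout; potency for loss of cell viability measured by luminescence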
[24] = target: Potassium voltage-gated channel subfamily KQT member 2 (Rattus norvegicus, UniProt O88943); experiment: potentiation of rat KCNQ2 current – cell-based, retigabine-insensitive compounds, dose response (AID 2654); type: functional
[25] = target: T4, DNA dC->dU-editing enzyme APOBEC-3A; experiment: Dose Response confirmation of small molecule APOBEC3A DNA Deaminase Inhibitors via a fluorescence-based single-stranded DNA deaminase assay. [Related pubchem assays (depositor defined):AID493011, AID493024]; type: functional
[26] = target: Eukaryotic translation initiation factor 4H (Homo sapiens, UniProt Q15056); experiment: eIF4H binding inhibition – biochemical, uHTS, fluorescence polarization, translation initiation inhibitor project, primary screen (AID 2012)
[27] = target: Polyadenylate-binding protein 1 (Homo sapiens, UniProt P11940); experiment: blockers of PABP interaction with poly(A) – biochemical, fluorescence polarization, […] (AID 2014)
[28] = target: T2, DNA dC->dU-editing enzyme APOBEC-3G; type: functional
[29] = target: ORF 73 (Human herpesvirus 8, UniProt O40947); experiment: KSHV LANA DNA-binding disruption – biochemical, fluorescence polarization, cherry-picked samples, dose response (AID 504725); design: species or system Human gammaherpesvirus 8;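 also: fluorescence polarization of a labeled DNA duplex reporting LANA DNA binding; potency is for inhibitors that block LANA binding to the DNA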
[30] = target: T5, Carboxy-terminal domain RNA polymerase II polypeptide A small phosphatase 1 (Homo sapiens, UniProt Q9GZU7); experiment: CTDSP1 inhibitors, concentration-response, biochemical, absorbance readout, ultra-high-throughput screen actives (AID 540297); type: functional
T5 sequence (Q9GZU7 whole entry): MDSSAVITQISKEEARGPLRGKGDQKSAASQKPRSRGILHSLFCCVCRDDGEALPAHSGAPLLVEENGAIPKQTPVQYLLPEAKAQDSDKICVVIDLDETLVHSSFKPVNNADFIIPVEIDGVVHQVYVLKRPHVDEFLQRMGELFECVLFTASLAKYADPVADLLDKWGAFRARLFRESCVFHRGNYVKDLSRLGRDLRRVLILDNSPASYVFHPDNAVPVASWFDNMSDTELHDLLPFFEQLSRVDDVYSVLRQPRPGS

[31] = target: Ras and Rab interactor 1/Tyrosine-protein kinase ABL1 (Homo sapiens, UniProt P00519+Q13671); type: functional;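 also: biochemical TR-FRET dose-response test measuring inhibition of binding between Rin1 and Abl proteins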
[32] = system: HeLa; experiment: viability loss in HeLa cells – cell-based, 24 h, cherry-picked samples, cytotoxicity control, dose response (AID 504726); type: functional; details: Homo sapiens;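 also: potency for cytotoxicity as loss of luminescence signal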
[33] = target: Acyl-homoserine lactone acylase PvdQ (Pseudomonas aeruginosa (strain LESB58), UniProt Q9I194); experiment: PvdQ acylase enzyme activity blockers – biochemical, fluorescence, plate reader and imaging, cherry-picks, dose response (AID 493231)
[34] = viability loss of HPDE-C7K cells – cell-based, fluorescence, HTS, primary screen (AID 431); type: functional; details: Homo sapiens
[35] = target: G-protein coupled receptor 55 (Homo sapiens, UniProt Q9Y2T6); experiment: selective activators of receptor GPR55 – imaging, U2OS cells, beta-arrestin-GFP redistribution, primary screen (AID 1961); type: functional
[36] = HPDE-C7 pancreatic duct cell viability loss – fluorescence, HTS (AID 430); type: functional, cell-based; details: Homo sapiens
[37] = target: Cytochrome P450 2D6 (Homo sapiens, UniProt P10635); experiment: qHTS Assay for Inhibitors and Substrates of Cytochrome P450 2D6. [Related pubchem assays: 410 ]; type: ADME; details: read-out: Potency

Sequence of Potassium voltage-gated channel subfamily KQT member 2 (O88943 whole entry): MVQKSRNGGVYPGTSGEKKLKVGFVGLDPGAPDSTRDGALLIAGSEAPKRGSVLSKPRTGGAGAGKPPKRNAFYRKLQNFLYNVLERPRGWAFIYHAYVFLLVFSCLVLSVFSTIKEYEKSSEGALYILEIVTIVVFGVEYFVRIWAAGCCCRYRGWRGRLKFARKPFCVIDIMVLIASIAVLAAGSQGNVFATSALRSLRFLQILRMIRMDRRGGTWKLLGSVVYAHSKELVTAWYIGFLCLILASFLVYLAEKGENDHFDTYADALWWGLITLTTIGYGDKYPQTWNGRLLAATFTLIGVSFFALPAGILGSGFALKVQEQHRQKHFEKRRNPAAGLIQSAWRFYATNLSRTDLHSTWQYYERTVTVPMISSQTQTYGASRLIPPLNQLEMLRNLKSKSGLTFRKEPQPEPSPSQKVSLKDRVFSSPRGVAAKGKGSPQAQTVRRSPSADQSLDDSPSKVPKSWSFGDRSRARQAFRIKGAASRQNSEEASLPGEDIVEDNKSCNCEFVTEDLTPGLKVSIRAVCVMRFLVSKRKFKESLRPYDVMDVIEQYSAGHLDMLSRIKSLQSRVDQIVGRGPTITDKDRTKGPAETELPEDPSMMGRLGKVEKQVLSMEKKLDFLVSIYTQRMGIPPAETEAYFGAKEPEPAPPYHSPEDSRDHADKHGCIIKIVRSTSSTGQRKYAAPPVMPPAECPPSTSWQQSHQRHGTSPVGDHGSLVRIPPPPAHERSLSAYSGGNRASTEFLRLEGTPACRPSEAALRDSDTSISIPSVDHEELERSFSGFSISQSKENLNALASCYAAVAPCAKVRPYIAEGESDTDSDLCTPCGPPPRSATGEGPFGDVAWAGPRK
Sequence of Tumor necrosis factor (P01375 whole entry): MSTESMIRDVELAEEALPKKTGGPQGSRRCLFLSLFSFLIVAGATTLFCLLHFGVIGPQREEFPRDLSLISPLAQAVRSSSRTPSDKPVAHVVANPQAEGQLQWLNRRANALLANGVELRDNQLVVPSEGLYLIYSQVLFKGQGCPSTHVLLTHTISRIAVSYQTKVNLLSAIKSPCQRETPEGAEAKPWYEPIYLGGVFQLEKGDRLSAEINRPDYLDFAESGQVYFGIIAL
T2 sequence (Q9HC16 whole entry): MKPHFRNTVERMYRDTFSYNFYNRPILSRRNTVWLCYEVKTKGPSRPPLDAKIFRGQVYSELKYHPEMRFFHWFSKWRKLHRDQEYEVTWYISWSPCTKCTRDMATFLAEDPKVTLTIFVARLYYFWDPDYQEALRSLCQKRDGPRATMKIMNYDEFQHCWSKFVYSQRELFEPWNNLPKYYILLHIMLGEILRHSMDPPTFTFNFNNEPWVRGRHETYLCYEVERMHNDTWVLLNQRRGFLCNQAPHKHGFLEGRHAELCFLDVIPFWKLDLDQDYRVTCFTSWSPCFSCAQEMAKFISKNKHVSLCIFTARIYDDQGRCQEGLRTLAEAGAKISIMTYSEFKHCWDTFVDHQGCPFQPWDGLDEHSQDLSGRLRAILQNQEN
T3 sequence (Q00975 whole entry): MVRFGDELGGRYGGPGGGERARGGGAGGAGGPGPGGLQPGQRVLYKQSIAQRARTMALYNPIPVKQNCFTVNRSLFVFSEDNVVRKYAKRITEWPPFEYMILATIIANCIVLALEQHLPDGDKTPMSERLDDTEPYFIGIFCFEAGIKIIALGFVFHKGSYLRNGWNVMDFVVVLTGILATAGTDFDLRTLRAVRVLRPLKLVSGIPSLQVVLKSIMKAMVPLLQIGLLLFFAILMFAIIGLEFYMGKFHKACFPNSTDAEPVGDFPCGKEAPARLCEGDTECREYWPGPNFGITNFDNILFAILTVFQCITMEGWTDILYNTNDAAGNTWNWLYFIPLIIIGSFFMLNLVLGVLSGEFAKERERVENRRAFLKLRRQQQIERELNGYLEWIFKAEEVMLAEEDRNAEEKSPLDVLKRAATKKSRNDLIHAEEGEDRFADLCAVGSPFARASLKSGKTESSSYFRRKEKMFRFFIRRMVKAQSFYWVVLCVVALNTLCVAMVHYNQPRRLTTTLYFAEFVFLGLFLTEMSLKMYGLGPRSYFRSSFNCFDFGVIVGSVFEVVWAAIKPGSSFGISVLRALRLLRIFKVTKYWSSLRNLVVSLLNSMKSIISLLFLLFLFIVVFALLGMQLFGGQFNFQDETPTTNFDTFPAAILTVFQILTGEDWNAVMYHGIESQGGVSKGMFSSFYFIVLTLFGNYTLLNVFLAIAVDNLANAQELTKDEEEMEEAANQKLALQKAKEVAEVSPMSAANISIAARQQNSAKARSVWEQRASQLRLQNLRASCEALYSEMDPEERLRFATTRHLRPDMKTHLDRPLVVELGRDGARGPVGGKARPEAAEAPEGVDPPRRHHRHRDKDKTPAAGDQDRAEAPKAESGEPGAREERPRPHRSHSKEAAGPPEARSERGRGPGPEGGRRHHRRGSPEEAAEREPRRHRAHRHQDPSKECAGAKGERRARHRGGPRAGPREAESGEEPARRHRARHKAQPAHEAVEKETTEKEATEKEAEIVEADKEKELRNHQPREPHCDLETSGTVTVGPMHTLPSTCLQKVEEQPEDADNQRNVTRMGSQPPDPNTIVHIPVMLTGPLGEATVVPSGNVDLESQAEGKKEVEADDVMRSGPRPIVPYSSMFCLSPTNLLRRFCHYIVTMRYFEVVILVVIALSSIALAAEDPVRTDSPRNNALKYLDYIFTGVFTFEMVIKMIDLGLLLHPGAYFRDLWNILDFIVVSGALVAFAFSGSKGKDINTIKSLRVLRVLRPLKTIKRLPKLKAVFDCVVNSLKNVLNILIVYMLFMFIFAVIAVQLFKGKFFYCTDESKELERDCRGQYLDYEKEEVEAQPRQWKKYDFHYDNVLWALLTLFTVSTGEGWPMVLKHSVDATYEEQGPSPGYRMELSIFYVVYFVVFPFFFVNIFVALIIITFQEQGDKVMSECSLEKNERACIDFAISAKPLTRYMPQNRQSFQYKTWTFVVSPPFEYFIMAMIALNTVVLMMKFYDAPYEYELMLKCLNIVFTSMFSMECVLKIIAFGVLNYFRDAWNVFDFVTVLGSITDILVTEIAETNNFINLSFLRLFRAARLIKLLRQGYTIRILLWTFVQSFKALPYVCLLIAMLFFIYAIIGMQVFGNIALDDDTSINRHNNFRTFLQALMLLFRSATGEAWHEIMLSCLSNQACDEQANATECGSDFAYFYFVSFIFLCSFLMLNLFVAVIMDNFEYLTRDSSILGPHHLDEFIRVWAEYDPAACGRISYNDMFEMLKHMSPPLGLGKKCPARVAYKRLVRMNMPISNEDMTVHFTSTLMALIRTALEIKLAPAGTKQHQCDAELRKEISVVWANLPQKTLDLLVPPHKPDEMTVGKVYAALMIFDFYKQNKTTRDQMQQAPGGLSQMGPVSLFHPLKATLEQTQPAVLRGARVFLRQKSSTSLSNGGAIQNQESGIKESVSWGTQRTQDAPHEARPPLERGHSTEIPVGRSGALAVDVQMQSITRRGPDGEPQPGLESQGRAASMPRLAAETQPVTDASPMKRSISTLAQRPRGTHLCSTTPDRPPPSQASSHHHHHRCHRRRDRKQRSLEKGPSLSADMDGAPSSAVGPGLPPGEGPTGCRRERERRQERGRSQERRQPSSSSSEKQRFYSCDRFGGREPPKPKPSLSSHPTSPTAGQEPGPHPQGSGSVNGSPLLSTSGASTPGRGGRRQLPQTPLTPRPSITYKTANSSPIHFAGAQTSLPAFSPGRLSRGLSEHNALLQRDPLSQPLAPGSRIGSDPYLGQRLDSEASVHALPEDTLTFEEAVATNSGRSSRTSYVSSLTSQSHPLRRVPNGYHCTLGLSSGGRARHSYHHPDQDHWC
T3 sequence (Q02410 whole entry): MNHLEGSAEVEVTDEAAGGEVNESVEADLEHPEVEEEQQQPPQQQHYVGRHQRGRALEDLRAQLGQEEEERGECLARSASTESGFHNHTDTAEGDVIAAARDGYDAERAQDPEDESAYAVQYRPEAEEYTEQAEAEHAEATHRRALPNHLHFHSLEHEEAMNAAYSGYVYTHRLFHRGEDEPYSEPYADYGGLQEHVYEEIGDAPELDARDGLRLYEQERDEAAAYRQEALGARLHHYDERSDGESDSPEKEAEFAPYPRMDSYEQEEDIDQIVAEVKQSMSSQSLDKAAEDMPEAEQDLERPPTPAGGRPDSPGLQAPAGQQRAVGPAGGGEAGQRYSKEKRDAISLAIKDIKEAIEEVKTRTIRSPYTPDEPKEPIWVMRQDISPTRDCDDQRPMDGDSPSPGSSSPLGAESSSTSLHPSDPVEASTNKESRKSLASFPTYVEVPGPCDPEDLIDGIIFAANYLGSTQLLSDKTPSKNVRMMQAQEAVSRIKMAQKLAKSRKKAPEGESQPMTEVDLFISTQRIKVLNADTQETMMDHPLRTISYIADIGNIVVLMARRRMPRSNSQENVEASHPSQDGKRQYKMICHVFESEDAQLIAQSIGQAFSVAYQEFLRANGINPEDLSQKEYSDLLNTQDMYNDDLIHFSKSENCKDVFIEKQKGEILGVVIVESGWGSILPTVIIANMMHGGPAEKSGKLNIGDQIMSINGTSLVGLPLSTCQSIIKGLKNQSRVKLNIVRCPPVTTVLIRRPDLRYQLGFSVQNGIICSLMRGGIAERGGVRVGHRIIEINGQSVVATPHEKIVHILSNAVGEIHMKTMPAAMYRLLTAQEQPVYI
T4 sequence (P31941 whole entry): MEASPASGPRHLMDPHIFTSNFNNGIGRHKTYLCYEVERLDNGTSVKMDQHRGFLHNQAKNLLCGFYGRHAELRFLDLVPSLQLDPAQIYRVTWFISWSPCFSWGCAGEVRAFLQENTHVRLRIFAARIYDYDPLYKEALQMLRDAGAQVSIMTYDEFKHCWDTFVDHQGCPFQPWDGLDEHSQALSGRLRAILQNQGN
Sequence of Eukaryotic translation initiation factor 4E (P63073 whole entry): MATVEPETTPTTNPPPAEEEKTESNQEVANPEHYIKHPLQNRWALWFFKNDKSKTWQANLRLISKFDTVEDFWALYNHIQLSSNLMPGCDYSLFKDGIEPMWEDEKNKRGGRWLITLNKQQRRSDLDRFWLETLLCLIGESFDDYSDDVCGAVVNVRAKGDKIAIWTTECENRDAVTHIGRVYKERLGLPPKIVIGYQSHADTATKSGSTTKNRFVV

For `COc1ccc(-c2cc(=O)c3ccc(O)cc3o2)cc1`, the AC50 [1] was 3.98 µM (inconclusive).

In the case of `C/C(=N\NC(=O)c1ccc(Cl)cc1)c1ccccn1`, the CC50 [2] is reported as 0.551 µM (active), the EC50 [3] is reported as 7.47 µM (active) and the EC50 [4] is reported as 1.04 µM (active). For the same compound, the EC50 [5] was < 0.1 µM (active), the IC50 [6] was 0.546 µM (active) and the EC50 [7] was 2.33 µM (active). The CC50 [8] was 6.87 µM (active), the IC50 [9] was 0.8 µM (active) and the CC50 [10] was 1.52 µM (active). For the same compound, the AC50 [11] was 0.34 µM (active) and the EC50 [12] was 0.064 µM (active).

With `Nc1nc2ccccc2n1Cc1ccc(Cl)cc1` the IC50 [13] was 12.1 µM (active), the IC50 [14] was 19.8 µM (active) and the IC50 [15] was 8.92 µM (active) and > 20 µM (inactive).

For `Cc1cc(Cl)ccc1/N=c1\ssnc1Cl`, the IC50 [16] was > 64 µM (inactive), the IC50 [17] was 11.9 µM (active) and the IC50 [18] was 15.4 µM (active). For the same compound, the EC50 [19] was > 29.9 µM (not active), the EC50 [20] was > 29.9 µM (not active) and the IC50 [21] was > 100 µM (inactive). The IC50 [22] was 2.3 µM (active) and the EC50 [23] was 49 µM (active).

In the case of `CCC(C)c1ccc(NC(=S)Nc2cccnc2)cc1` (centres undefined), the EC50 [24] is reported as 12.6 µM (active).

With `Cc1nc2ccc(NC(=O)C3COc4ccccc4O3)cc2s1` (centres undefined) the IC50 [25] was 6.32 µM (active), the IC50 [26] was > 100 µM (inactive) and the IC50 [27] was 11.1 µM (active). The IC50 [28] was 6.02 µM (active).

For `COc1cc(O)c(C(C)=O)c(CC(=O)O)c1`, the AC50 [29] was 46.3 µM (active), the IC50 [30] was 3.5 µM (active) and the IC50 [31] was 15.6 µM (inactive).

With `C/C(=N\Nc1nc2c(s1)CCCC2)c1ccc(Cl)cc1` the AC50 [32] was 83.5 µM (active).

With `Cc1ccc(C)c(S(=O)(=O)NC2CCSC2=O)c1` (centres undefined) the AC50 [33] was 3.22 µM (active).

For `COc1ccc(C2(O)CC3CCC(C2)N3c2cc(C)nc(-c3ccccc3)n2)cc1` (centres undefined), the EC50 [34] was > 20 µM (not active), the EC50 [35] was 7.35 µM (active) and the EC50 [36] was > 20 µM (not active).

In the case of `CC(=O)[C@@H]1[C@H]2[C@@H](C(=O)[C@H]3OC[C@H]2O3)[C@@H]2C=Cc3ccccc3N12`, the AC50 [1] is reported as 31.6 µM (inconclusive) and the AC50 [37] is reported as 39.8 µM (inconclusive).

For `Cc1ccc(NC(=O)Nc2cccnc2)cc1F`, the EC50 [24] was 9.14 µM (active).
